The nature of data set [1]: Stability of C2TCO in full cell growth media, titration with DMT. Format: in vitro ADME. Conditions: full cell growth media (10% FBS), 37° C., up to 48 h. From the text:
C2TCO can be incorporated into probes that bind to intracellular targets.

A short description of data set [2]: Endpoint cleavage of AF594-C2TCO-AF594 with tetrazines (HPLC, fluorescence detection). Conditions: 15 + excess tetrazine, buffered solution pH 7.4, endpoint 24 h. As to the method:
As an initial assessment of cleavage efficiency, 15 was reacted with an excess of selected tetrazines in buffered solution at pH 7.4 and analyzed the reaction mixtures at an endpoint of 24 h by HPLC with fluorescence detection. […] One hypothesis is that this is not only due to slow tautomerization, but also limited elimination of the respective B1/B2 intermediate. The inability to achieve complete release with Pyr2Tz highlights the advantages of a cleavage directing group.
Release measurements with AF594-C2TCO-AF594: Analytical stock solutions and buffers. 10 mM stock solutions of the release probe AF594-C2TCO-AF594 was prepared and further diluted with citrate-phosphate buffer (as indicated below), so that the final concentration of DMSO in buffer was never higher than 2%. Tetrazine stock solutions were prepared in DMSO at concentrations ranging from 10-100 mM and diluted with citrate-phosphate buffer (as indicated below), so that the final concentration of DMSO in buffer was never higher than 2%. […]
Endpoint measurements with AF594-C2TCO-AF594. […] The released AF594-amine was detected using an RF-20Axs fluorescence detector and confirmed by a LCMS-2020 mass spectrometer (ESI) implemented in the Nexera X2® UHPLC system.

The conditions of data set [3]: in vivo; cited from earlier work.
A short description of data set [4]: Second order rate constants of tetrazines with PEGylated rTCO 6. The note with it: reaction with PEGylated rTCO 6.
Data set [5] in a line: Release from rTCO-AlexaFluor 350 conjugate monitored by LCMS. Conditions: Tz 200 μM, 7 125 μM, pH 7, 25° C.; PyrMe within ~8 hours, PyrPA initial fast phase. Here is the method:
Similar to the previous study (Carlson et al.), an rTCO-AlexaFluor 350 conjugate was used (7, FIG. 5) to further investigate the release step. Reactions were carried out in buffered aqueous solution at pH 7 and 25° C., selecting concentrations of PyrMe or PyrPA (200 μM) and 7 (125 μM) such that the click reaction was done in less than 4 minutes, allowing temporal monitoring of post-click reactions by LCMS. With PyrMe, slow monophasic release was observed that reached a yield of approximately 50% within ˜8 hours. […] To verify these hypotheses, PyrMe was reacted with rTCO-glycine, the release reaction was allowed to proceed to completion, and the non-releasing isomer was then isolated. […] This key finding is in line with the observations of Sarris et al., who achieved approx. 80% release with PymK (3) and invoked the preferred formation of the releasing adduct with the ethylammonium moiety in head-to-head position. (due to pre-click interaction of NH3^+ with the carbamate functionality of the leaving group) to explain this increased conversion.

Where a SMILES comes first, the peptide text is derived from it.

As usually defined, the half-life is the time needed for the level to fall by half in the phase considered.

`OC1/C=C/C(O)CCCC1` (stereo not drawn) [C2TCO, anti-cyclooct-2-ene-1,4-diol]: the “stability (intact C2TCO)” value in data set [1] was above 97%.
In the case of `Cc1nnc(C)nn1` [DMT], the cleavage result in data set [2] was “Nearly complete cleavage”.
For the compound `N=C(N)NCCCC[C@@H]1NC(=O)CCSSC[C@@H](C(N)=O)NC(=O)[C@@H]2CCCN2C(=O)[C@H](Cc2c[nH]c3ccccc23)NC(=O)[C@H](CC(=O)O)NC(=O)CNC1=O` [Eptifibatide] (HELM PEPTIDE1{[O=C(CCS[*:3])[*:2]].[N=C(N)NCCCC[C@H](N[*:1])C(=O)[*:2]].G.D.W.P.C.[am]}$PEPTIDE1,PEPTIDE1,1:R3-7:R3$$$V2.0), the half-life in data set [3] was 3 to 4 h.
In the case of `c1ccc(-c2nnc(-c3ccccn3)nn2)nc1` [Pyr2Tz, 3,6-bis(2-pyridyl)tetrazine], the cleavage in data set [2] was determined as 23%.
For `Cc1nnc(-c2ccccn2)nn1` [PyrMe], the “rate enhancement vs. DMT” value in data set [4] is given as “up to 12 fold”. In addition, the release yield entry in data set [5] was “approximately 50%”.
On to `O=C(O)CCc1nnc(-c2ccccn2)nn1` [PyrPA], for which the release yield result in data set [5] is on record as “very similar release yield”.
With alteplase: widely-used tPA thrombolytic, in data set [3], the “clearance t1/2” value is given as “about 5 min”.

Values taken from patent US20240058455A1, “BIOORTHOGONAL LINKERS AND REACTIONS” (The General Hospital Corporation, priority 2020, published 2024).
